Test results: US8741659B2, “Composition for measuring the binding affinity between nucleic acid and test substance, and use thereof” (Osaka University, priority 2007, dated 2014)

Key:
[1] = system: double strand RNA (SEQ ID NO: 1 hybridized with SEQ ID NO: 3); assay: Fluorescence titration experiment using double strand RNA; assay type: binding; conditions: 1.0 μM compound, double strand RNA 0.0-1.0 μM
Method: (§1) Then, changes in fluorescence intensities were observed.
Firstly, X2S, X2S(3), X2S(4), X2S(5), X2S(2-Me), and 3,6-X2S(2) were respectively mixed with cacodylate buffer solutions (sodium cacodylate: 10 mM, pH 7.0; NaCl: 100 mM) each at 1.0 μM, so that solutions of the respective compounds were obtained.
As the double strand RNA, an RNA as in FIG. 2 having N representing no base was used. Specifically, an RNA formed by hybridization of an RNA having the base sequence shown in SEQ ID NO: 1 with an RNA having the base sequence shown in SEQ ID NO: 3 was used. The RNA was added to each of the solutions of the above compositions in steps at 0.0 μM, 0.2 μM, 0.4 μM, 0.8 μM, and 1.0 μM.
Each of the solutions to which the RNAs were added was irradiated with light, and a fluorescence intensity was measured. A device used for measuring the fluorescence intensity was the same as that used in Example 13. A variation in a slit width was set to ±3.0 nm during the excitation, and to ±3.0 nm during the measurement of fluorescence.
In each of FIGS. 25 to 30, the horizontal axis represents the fluorescence wavelength, whereas the vertical axis represents the fluorescence intensity.
FIG. 31 is a graph illustrating a relationship between a concentration of the double strand RNA added and a fluorescence intensity of each compound. […]

RRE = assay: Fluorescence titration / evaluation of binding with RRE; design: species or system HIV-1; conditions: 1.0 μM compound; for reduction of fluorescence intensity (residual fluorescence intensity) on binding RRE: RRE 0.0-1.0 μM; for difference in quenching efficiency between RRE and double strand RNA: FIGS. 41 and 42
Method: In this Example, binding between RRE and X2S was evaluated by a method identical to the method in Example 2.
The […] of RRE is shown in SEQ ID NO: 8. […] RRE was purchased from Hokkaido System Science Co., Ltd.
Firstly, the X2S solution obtained in Example 1 was diluted with a cacodylate buffer solution (sodium cacodylate: 10 mM, pH 7.0; NaCl: 100 mM), so that a concentration of X2S became 2 μM. To the 2-μM X2S solution thus obtained, RRE was added in steps at 0 μM, 1 μM, 2 μM, 3 μM, 4 μM, 5 μM, 6 μM, and 8 μM. Further, a fluorescence intensity of the 2-μM X2S solution was measured at each concentration. The fluorescence intensity was measured in the same manner as in Example 2.
FIG. 7 is a view illustrating a result of evaluation of binding between X2S and RRE. In FIG. 7, the horizontal axis represents the fluorescence wavelength, whereas the vertical axis represents the fluorescence intensity. […] Other figures include such arrows for results of measurements of fluorescence intensities.
FIG. 8 is a view plotting the fluorescence intensities at a measured wavelength of 453 nm shown in the result illustrated in FIG. 7. The horizontal axis represents the concentration of RRE, whereas the vertical axis represents the fluorescence intensity.
as §1
Firstly, X2S, X2S(3), X2S(4), X2S(5), X2S(2-Me), and 3,6-X2S(2) were respectively mixed with cacodylate buffer solutions (sodium cacodylate: 10 mM, pH 7.0; NaCl: 100 mM) each at 1.0 μM, so that solutions of the respective compounds were obtained. RRE used in this Example was the same as that used in Example 4. RRE was added to each of the solutions of the respective compounds in steps at 0.0 μM, 0.2 μM, 0.4 μM, 0.8 μM, and 1.0 μM.
Each of the solutions to which RRE was added was irradiated with light, and a fluorescence intensity was measured. A device used for measuring the fluorescence intensity was the same as that used in Example 13. A variation in a slit width was also the same as that in Example 14.
FIG. 39 is a graph illustrating a relationship between a concentration of RRE added and a fluorescence intensity of each compound. Further, FIG. 39 is also a view plotting the fluorescence intensities of the respective fluorescence peaks shown in the results illustrated in FIGS. 33 to 38. FIG. 40 is a view plotting residual fluorescence intensities (%) which were obtained based on the results shown in FIGS. 33 to 38, assuming that the fluorescence intensities of the respective fluorescence peaks observed at a concentration of 0.0 μM of RRE were 100%. In each of FIGS. 39 and 40, the horizontal axis represents the concentration of the RNA. In FIG. 39, the vertical axis represents the fluorescence intensity. In FIG. 40, the vertical axis represents the residual fluorescence intensity (%).
FIG. 41 is a view plotting values obtained by dividing (i) the residual fluorescence intensities (%) obtained in the case involving use of the double strand RNA by (ii) the residual fluorescence intensities (%) obtained in the case involving use of RRE. That is, FIG. 41 is a view plotting values obtained by dividing (i) the residual fluorescence intensity (%) shown in FIG. 32 by (ii) the residual fluorescence intensities (%) shown in FIG. 40. FIG. 42 is a view plotting values obtained by subtracting (i) the residual fluorescence intensities (%) obtained in the case involving use of RRE from (ii) the residual fluorescence intensities (%) obtained in the case involving use of the double strand RNA. That is, FIG. 42 is a view plotting values obtained by subtracting (i) the residual fluorescence intensities (%) shown in FIG. 40 from (ii) the residual fluorescence intensities (%) shown in FIG. 32.
In this Example, 1-Pyrenemethanamide, hydrochloride was caused to bind to a double strand RNA or RRE. Then, a change in a fluorescence intensity was observed. […]

SMILES | reduction of fluorescence intensity (residual fluorescence intensity) on binding double strand RNA [1] | reduction of fluorescence intensity (residual fluorescence intensity) on binding RRE (RRE) | difference in quenching efficiency between RRE and double strand RNA (RRE)
CC(N)COc1ccc2oc3ccc(OCC(C)N)cc3c(=O)c2c1 (stereo not drawn) [X2S(3), 2,7-bis(2-aminopropoxy)xanthen-9-one] | particularly high reduction rates | particularly high reduction rates | greatest
CCC(N)COc1ccc2oc3ccc(OCC(N)CC)cc3c(=O)c2c1 (stereo not drawn) [X2S(4), 2,7-bis(2-aminobutoxy)xanthen-9-one] | particularly high reduction rates | particularly high reduction rates | greatest
